Source: paper PMC11851430, “Workflow for E3 Ligase Ligand Validation for PROTAC Development” (ACS Chemical Biology, 2025)

Columns and labels:
Format in all cases: binding
BRD4 = molecular target: T1, BRD4 (Homo sapiens, UniProt O60885); assay: DSF assay; conditions: 20 µM compound
T1 construct: purchased in-house DSF panel (SGC-style construct names; the trailing A/B is a construct suffix)
Method: (§1) Excitation and emission filters […]
(§2) curve. […] Measurements were
(§3) Kinobeads selectivity profiling of PROTACs
(§4) (Multiplexion, Heidelberg, Germany).
(§5) The cell lysate was ultracentrifuged and diluted
(§6) NaF, 1 mM DTT, protease inhibitors and phosphatase inhibitors to a final concentration of 5 mg/ml as determined by Bradford assay. For selectivity profiling of compounds the cell lysate (2.5 mg of total proteins per pulldown) was pre-incubated with increasing compound […]
(§7) µM) for 45 min at 4 °C in an end-over-end shaker. Subsequently, lysates were incubated with Kinobeads epsilon (17 µL settled beads) for 30 min at 4 °C. To assess the degree of protein depletion from the lysates by Kinobeads, the flow-through of the DMSO control was recovered

CDC42BPAA = assay: DSF assay; conditions: 20 µM compound
Method: as §1, §2, §3, §4, §5, §6, §7

CK2A1A = molecular target: T2, CK2A1A (Homo sapiens, UniProt P68400); assay: DSF assay; conditions: 20 µM compound
T2 construct: purchased in-house DSF panel (SGC-style construct names; the trailing A/B is a construct suffix)
Method: as §1, §2, §3, §4, §5, §6, §7

CLK3A = molecular target: T3, CLK3A (Homo sapiens, UniProt P49761); assay: DSF assay; conditions: 20 µM compound
T3 construct: purchased in-house DSF panel (SGC-style construct names; the trailing A/B is a construct suffix)
Method: as §1, §2, §3, §4, §5, §6, §7

CSNK1DA = molecular target: T4, CSNK1DA (Homo sapiens, UniProt P48730); assay: DSF assay; conditions: 20 µM compound
T4 construct: purchased in-house DSF panel (SGC-style construct names; the trailing A/B is a construct suffix)
T4 sequence (P48730 1-294): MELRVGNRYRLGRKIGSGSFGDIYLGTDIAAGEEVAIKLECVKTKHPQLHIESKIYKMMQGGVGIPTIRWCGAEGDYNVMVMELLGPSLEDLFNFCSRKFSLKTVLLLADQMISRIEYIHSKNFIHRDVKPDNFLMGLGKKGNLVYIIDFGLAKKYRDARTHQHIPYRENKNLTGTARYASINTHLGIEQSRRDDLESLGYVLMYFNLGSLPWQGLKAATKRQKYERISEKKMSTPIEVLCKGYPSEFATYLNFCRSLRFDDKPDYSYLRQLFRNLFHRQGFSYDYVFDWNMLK
Method: as §1, §2, §3, §4, §5, §6, §7

FGFR3A = molecular target: T5, FGFR3A (Homo sapiens, UniProt P22607); assay: DSF assay; conditions: 20 µM compound
T5 construct: purchased in-house DSF panel (SGC-style construct names; the trailing A/B is a construct suffix)
Method: as §1, §2, §3, §4, §5, §6, §7

MAP2K1A = molecular target: T6, MAP2K1A (Homo sapiens, UniProt Q02750); assay: DSF assay; conditions: 20 µM compound
T6 construct: purchased in-house DSF panel (SGC-style construct names; the trailing A/B is a construct suffix)
Method: as §1, §2, §3, §4, §5, §6, §7

MAPK8B = molecular target: T7, MAPK8B (Homo sapiens, UniProt P45983); assay: DSF assay; conditions: 20 µM compound
T7 construct: purchased in-house DSF panel (SGC-style construct names; the trailing A/B is a construct suffix)
Method: as §1, §2, §3, §4, §5, §6, §7

MARK3A = molecular target: T8, MARK3A (Homo sapiens, UniProt P27448); assay: DSF assay; conditions: 20 µM compound
T8 construct: purchased in-house DSF panel (SGC-style construct names; the trailing A/B is a construct suffix)
Method: as §1, §2, §3, §4, §5, §6, §7

NEK2A = molecular target: T9, NEK2A (Homo sapiens, UniProt P51955); assay: DSF assay; conditions: 20 µM compound
T9 construct: purchased in-house DSF panel (SGC-style construct names; the trailing A/B is a construct suffix)
T9 sequence (P51955 1-271): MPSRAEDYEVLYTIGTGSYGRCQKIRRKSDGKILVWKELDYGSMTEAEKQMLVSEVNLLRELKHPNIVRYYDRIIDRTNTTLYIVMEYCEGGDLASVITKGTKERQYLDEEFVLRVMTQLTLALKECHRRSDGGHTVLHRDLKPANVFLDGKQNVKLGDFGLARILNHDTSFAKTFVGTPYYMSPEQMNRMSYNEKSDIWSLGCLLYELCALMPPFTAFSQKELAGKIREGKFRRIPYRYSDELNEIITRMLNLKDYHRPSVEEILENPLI
Method: as §1, §2, §3, §4, §5, §6, §7

PIM1A = molecular target: T10, PIM1A (Homo sapiens, UniProt P11309); assay: DSF assay; conditions: 20 µM compound
T10 construct: purchased in-house DSF panel (SGC-style construct names; the trailing A/B is a construct suffix)
Method: as §1, §2, §3, §4, §5, §6, §7

PKMYT1A = molecular target: T11, PKMYT1A (Homo sapiens, UniProt Q99640); assay: DSF assay; conditions: 20 µM compound
T11 construct: purchased in-house DSF panel (SGC-style construct names; the trailing A/B is a construct suffix)
T11 sequence (Q99640 75-362): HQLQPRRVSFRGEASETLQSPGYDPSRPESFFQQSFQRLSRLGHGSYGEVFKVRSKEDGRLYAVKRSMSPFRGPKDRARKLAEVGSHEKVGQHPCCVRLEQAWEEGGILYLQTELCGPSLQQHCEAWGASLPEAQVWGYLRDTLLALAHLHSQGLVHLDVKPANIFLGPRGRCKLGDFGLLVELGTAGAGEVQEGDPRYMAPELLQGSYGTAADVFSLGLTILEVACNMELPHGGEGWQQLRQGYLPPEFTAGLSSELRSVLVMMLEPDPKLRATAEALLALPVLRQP
Method: as §1, §2, §3, §4, §5, §6, §7

RPS6KA1A = assay: DSF assay; conditions: 20 µM compound
Method: as §1, §2, §3, §4, §5, §6, §7

SRPK1 = molecular target: T12, SRPK1 (Homo sapiens, UniProt Q96SB4); assay: DSF assay; conditions: 20 µM compound
T12 construct: purchased in-house DSF panel (SGC-style construct names; the trailing A/B is a construct suffix)
Method: as §1, §2, §3, §4, §5, §6, §7

RPS6KA6A = assay: DSF assay; conditions: 20 µM compound
AAK1 = molecular target: T13, AAK1 (Homo sapiens, UniProt Q2M2I8); assay: Kinobeads selectivity profiling; conditions: Jurkat lysate, dose series given in nM; for Kd: read-out: Kd (apparent dissociation constant, corrected for protein depletion)
T13 construct: endogenous in cells; host or cells: Jurkat (Clone E6.1) cell lysate
Method: as §1, §2, §3, §4, §5, §6
µM) for 45 min at 4 °C in an end-over-end shaker. Subsequently, lysates were incubated with Kinobeads epsilon (17 µL settled beads) for 30 min at 4 °C. To assess the degree of protein depletion from the lysates by Kinobeads, the flow-through of the DMSO control was recovered […]
for a pulldown of pulldown experiment where the lysate was incubated a second time with fresh Kinobeads. Beads were washed in 3 steps with buffer containing 0.4%, 0.2% and no NP40.
Bound proteins were reduced with 50 mM DTT in 8 M Urea, 40 mM Tris-HCl pH 7.4 for 30 min at room temperature. After alkylation with 55 mM chloroacetamide (CAA), the Urea concentration was reduced to 1 – 2 M and proteins were digested using trypsin. Acidified peptides were desalted and concentrated using SepPak tC18 µEluation plates (Waters).
Samples were frozen, dried by vacuum centrifugation and stored at -20 °C.
LC-MS2 analysis. Peptides were measured on a Dionex Ultimate3000 nano HPLC coupled online to an Orbitrap Fusion Lumos (Thermo Fisher Scientific) mass spectrometer.
Peptides were dissolved in 0.1% formic acid and delivered to a trap column (ReproSil-pur C18-AQ, 5 μm, Dr. Maisch, 20 mm × 75 μm, self-packed) at a flow rate of 5 μL/min in LC solvent A (0.1 % formic acid).4 After 10 min of loading, peptides were transferred to an analytical column (ReproSil Gold C18-AQ, 3 μm, Dr. Maisch, 400 mm × 75 μm, self-packed) and separated using […]
acetonitrile) in LC solvent A.
The Orbitrap Fusion Lumos was operated as follows: positive polarity; spray voltage 2.1 kV, […]
A full-scan (MS1) was recorded from 360 to 1300 m/z with a resolution of 60,000 in the Orbitrap in profile mode. The MS1 AGC target was set to 4e5 and the maxIT was set to 50 ms, RF lens value was set to 50%. Based on the full scans, precursors were targeted for the MS/MS scans […]
intensity exceeded 2.5e4. The dynamic exclusion was set to 30 sec and exclude isotopes was switched on. The MS2 quadrupole isolation window was set to 1.7 m/z. Peptide fragmentation occurred in the ion routing multipole (IRM) by HCD with a fixed collision energy mode, the […]

T13 sequence (Q2M2I8 whole entry): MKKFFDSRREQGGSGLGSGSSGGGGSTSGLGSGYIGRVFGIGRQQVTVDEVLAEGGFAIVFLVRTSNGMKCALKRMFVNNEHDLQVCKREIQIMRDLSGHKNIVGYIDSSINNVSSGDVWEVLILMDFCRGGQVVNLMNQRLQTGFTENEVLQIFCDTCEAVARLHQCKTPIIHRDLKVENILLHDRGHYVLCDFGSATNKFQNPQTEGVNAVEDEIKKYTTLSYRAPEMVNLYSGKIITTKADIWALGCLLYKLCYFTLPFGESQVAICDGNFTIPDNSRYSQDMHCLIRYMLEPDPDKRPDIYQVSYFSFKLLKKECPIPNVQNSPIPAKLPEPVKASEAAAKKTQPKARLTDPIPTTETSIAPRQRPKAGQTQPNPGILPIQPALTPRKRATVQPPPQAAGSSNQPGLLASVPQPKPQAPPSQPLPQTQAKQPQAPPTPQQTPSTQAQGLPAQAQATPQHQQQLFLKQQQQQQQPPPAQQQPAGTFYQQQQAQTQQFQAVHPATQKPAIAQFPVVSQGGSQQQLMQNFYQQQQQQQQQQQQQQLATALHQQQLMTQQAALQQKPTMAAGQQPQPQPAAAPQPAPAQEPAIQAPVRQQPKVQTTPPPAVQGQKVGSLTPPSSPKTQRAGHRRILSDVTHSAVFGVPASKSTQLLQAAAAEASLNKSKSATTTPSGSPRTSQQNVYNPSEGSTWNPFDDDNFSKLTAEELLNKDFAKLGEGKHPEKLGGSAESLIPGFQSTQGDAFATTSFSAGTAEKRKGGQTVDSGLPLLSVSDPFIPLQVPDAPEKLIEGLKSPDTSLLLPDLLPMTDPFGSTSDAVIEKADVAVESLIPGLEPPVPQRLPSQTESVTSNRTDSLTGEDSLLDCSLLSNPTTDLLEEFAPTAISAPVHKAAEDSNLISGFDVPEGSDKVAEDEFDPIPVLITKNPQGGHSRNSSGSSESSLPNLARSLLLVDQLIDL
T6 sequence (Q02750 62-393): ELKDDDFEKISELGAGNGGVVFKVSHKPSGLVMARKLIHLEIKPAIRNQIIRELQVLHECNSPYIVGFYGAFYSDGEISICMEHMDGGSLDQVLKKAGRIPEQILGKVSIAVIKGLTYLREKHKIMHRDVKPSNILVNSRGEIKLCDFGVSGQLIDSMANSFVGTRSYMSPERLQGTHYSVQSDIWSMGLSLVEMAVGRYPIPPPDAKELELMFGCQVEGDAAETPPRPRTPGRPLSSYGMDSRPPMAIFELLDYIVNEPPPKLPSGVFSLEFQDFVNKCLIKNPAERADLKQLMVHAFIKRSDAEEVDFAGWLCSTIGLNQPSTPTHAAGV
T5 sequence (P22607 455-768): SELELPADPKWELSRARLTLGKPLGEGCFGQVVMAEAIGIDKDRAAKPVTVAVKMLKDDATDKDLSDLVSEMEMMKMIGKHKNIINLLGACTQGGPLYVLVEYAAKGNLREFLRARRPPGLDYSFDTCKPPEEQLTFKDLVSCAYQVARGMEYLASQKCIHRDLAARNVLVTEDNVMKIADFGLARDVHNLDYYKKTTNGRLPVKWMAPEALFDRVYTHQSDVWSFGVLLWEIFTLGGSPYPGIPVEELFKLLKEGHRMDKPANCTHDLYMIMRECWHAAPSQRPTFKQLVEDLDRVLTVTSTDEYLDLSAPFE
T7 sequence (P45983 1-364): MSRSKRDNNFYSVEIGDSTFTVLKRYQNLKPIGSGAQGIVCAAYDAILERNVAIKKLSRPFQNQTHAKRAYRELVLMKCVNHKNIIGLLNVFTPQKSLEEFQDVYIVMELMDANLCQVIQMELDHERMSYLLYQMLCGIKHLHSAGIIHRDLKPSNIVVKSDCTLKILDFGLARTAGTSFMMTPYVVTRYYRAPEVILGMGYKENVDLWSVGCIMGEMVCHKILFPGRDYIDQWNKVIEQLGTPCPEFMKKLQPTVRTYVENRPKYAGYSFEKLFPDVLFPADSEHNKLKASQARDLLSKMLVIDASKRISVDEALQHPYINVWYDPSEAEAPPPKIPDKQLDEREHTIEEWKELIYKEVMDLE
T3 sequence (P49761 127-484): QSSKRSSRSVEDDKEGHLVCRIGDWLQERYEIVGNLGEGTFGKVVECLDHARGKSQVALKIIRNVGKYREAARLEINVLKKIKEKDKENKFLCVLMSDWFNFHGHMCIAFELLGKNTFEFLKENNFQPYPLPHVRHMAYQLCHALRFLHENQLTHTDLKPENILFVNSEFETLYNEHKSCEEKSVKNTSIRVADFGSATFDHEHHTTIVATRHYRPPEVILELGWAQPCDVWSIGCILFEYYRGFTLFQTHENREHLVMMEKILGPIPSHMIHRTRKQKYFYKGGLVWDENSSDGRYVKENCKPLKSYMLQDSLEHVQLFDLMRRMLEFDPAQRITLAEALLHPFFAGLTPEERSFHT
T2 sequence (P68400 whole entry): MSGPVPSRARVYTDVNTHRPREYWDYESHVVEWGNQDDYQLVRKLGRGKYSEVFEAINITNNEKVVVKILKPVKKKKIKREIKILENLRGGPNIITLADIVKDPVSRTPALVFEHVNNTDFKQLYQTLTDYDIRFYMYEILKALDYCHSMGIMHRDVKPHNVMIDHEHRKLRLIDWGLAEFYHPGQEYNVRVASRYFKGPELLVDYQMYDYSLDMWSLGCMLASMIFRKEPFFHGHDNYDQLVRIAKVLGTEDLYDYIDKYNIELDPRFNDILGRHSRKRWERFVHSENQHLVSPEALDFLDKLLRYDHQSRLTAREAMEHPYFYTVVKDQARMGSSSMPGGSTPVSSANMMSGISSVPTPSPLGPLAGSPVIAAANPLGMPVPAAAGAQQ
T10 sequence (P11309 whole entry): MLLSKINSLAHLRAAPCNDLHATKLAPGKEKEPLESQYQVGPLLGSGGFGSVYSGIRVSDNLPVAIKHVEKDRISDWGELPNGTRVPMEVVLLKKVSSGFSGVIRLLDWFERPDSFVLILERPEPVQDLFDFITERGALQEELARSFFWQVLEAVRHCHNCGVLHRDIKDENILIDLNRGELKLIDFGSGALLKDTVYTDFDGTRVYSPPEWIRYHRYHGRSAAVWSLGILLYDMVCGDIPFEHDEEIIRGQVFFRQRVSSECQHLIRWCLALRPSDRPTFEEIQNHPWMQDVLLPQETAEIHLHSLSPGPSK
T8 sequence (P27448 56-307): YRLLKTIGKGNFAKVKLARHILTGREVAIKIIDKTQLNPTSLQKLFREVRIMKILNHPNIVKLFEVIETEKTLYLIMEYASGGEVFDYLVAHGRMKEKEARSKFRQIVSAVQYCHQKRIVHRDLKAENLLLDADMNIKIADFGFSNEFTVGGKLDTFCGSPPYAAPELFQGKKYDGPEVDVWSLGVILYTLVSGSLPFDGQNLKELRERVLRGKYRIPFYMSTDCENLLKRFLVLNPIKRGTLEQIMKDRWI
T12 sequence (Q96SB4 whole entry): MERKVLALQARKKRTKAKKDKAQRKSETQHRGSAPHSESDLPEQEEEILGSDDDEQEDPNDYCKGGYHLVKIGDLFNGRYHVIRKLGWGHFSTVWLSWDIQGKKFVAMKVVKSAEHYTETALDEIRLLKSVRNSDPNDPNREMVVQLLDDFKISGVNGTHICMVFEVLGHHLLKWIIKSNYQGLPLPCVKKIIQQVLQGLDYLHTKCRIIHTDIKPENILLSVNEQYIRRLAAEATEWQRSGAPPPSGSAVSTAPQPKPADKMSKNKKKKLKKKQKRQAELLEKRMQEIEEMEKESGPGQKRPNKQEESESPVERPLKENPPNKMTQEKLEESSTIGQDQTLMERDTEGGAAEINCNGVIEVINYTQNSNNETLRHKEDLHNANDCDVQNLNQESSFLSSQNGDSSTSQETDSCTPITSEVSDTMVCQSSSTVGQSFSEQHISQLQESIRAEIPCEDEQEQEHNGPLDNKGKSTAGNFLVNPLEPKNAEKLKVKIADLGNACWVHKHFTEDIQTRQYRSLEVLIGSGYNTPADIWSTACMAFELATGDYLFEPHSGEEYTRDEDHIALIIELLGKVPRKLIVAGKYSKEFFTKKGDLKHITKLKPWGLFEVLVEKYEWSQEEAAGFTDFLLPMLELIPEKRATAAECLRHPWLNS

Structure (SMILES) | ΔTm at 20 µM (BRD4) [°C] | ΔTm (CDC42BPAA) [°C] | ΔTm at 20 µM (CK2A1A) [°C] | ΔTm at 20 µM (CLK3A) [°C] | ΔTm at 20 µM (CSNK1DA) [°C] | ΔTm at 20 µM (FGFR3A) [°C] | ΔTm at 20 µM (MAP2K1A) [°C] | ΔTm at 20 µM (MAPK8B) [°C] | ΔTm at 20 µM (MARK3A) [°C] | ΔTm at 20 µM (NEK2A) [°C] | ΔTm at 20 µM (PIM1A) [°C] | ΔTm at 20 µM (PKMYT1A) [°C] | ΔTm (RPS6KA1A) [°C] | ΔTm at 20 µM (SRPK1) [°C] | ΔTm (RPS6KA6A) [°C] | Kd (apparent dissociation constant, corrected for protein depletion) (AAK1) | Kd (AAK1) [nM]
CCOC(=O)c1cc(Nc2cc(C3CC3)[nH]n2)nc(Nc2ccc(CC#N)cc2)n1 [compound 5] | 1.16 | -2.55 | 3.87 | 9.57 | 2.62 | 8.45 | 1.56 | 4.31 | 5.37 | 2.25 | -0.9 | -1.04 | 1.55 | 4.31 | 0.34 | 62.7409 | 
CC(C)(C)OC(=O)NCCCOCCOCCOCCCNC(=O)c1cc(Nc2cc(C3CC3)[nH]n2)nc(Nc2ccc(CC#N)cc2)n1 [5-L] | -0.79 | -3.72 | 5.58 | 9.33 | 5.43 | 7 | 1.17 | 6.48 | 3.97 | 0.77 | -1.48 | -0.12 | 1.85 | 2.8 | 0.35 |  | 35.5
CC(C)(C)OC(=O)NCCOCCOCCOCCOCCC(=O)N1CCN(c2cc(Nc3cc(C4CC4)[nH]n3)nc(Nc3ccc(CC#N)cc3)n2)CC1 [4-L] | 0.18 | -2.71 | 3.81 | 6.42 | 3.01 | 11.4 | 1.66 | 6.93 | 5.32 | 2.97 | -0.76 | -2.93 | 0.76 | 0.76 | 0.07 |  | 6.67
